{
  "source": "patent US11203633B2",
  "about": "“Polynucleotides encoding antibodies or antigen binding fragments thereof that bind pseudomonas perv” (priority 2011, dated 2021)",
  "tested_on": "P. aeruginosa strains (PAO1, 33356, 6294, 6077, 6206)",
  "assay": "Acute pneumonia model in mice, organ burden (CFU in lung, spleen, kidneys)",
  "format": "in vivo, Pseudomonas aeruginosa",
  "procedure": "Antibodies or PBS were administered 24 hours before infection in each model. P. aeruginosa acute pneumonia, keratitis, and thermal injury infection models were performed as described (DiGiandomenico, A., et al., Proc Natl Acad Sci USA 104, 4624-4629 (2007)), with modifications. In the acute pneumonia model, BALB/c mice (The Jackson Laboratory) were infected with P. aeruginosa strains suspended in a 0.05 ml inoculum. In the thermal injury model, CF-1 mice (Charles River) received a 10% total body surface area burn with a metal brand heated to 92° C. for 10 seconds. Animals were infected subcutaneously with P. aeruginosa strain 6077 at the indicated dose. For organ burden experiments, acute pneumonia was induced in mice followed by harvesting of lungs, spleens, and kidneys 24 hours post-infection for determination of CFU.\nOrgan burden of Pseudomonas-infected mice was also studied in response to administration of V2L2. FIG. 14 (A) Mice were treated with either 1 mg/kg R347 (control), or 1 mg/kg, 0.2 mg/kg, or 0.07 mg/kg of V2L2 and then were infected intranasally with 1.2×10^6 cfu of Pseudomonas 6206. FIG. 14 (B) Mice were also treated with either 15 mg/kg R347 (negative control); 15.0 mg/kg, 5.0 mg/kg, or 1.0 mg/kg mAb166 (positive control); or 5.0 mg/kg, 1.0 mg/kg, or 0.2 mg/kg V2L2 and then were infected intranasally with 5.5×10^6 cfu of Pseudomonas 6206.\nThe in vivo effect of combination administration of anti-Psl and anti-PcrV binding domains was further studied in mice using the antibodies V2L2 and WapR-004 (RAD). Groups of mice were treated with R347 (2.1 mg/kg—negative control), V2L2 (0.1 mg/kg), W4-RAD (0.5 mg/kg), or V2L2/W4 combination (either 0.1, 0.5, 1.0 or 2.0 mg/kg each). Twenty-four hours post-administration of antibody, all mice were infected with an inoculum containing 5.25×10^5 cfu 6206 (O11-ExoU+). Twenty-four hours post infection, lungs, spleens, and kidneys were harvested, homogenized, and plated for colony forming unit (CFU) identification per gram of tissue.",
  "data": [
    {"substance": "Cam-003: anti-Psl human IgG1 monoclonal antibody; VH SEQ ID NO:1, VL SEQ ID NO:2", "values": [
      {"measurement": "viable CFU vs. R347, Mann-Whitney U-test P", "setting": "6077 1×10^6 CFU, lung, 45 mg/kg, FIG. 7D", "result": 0.0005},
      {"measurement": "viable CFU vs. R347, Mann-Whitney U-test P", "setting": "6077, kidneys, 5 mg/kg, FIG. 7D", "result": 0.0021},
      {"measurement": "viable CFU vs. R347, Mann-Whitney U-test P", "setting": "6077, kidneys, 15 mg/kg, FIG. 7D", "result": 0.0355},
      {"measurement": "viable CFU vs. R347, Mann-Whitney U-test P", "setting": "6077, kidneys, 45 mg/kg, FIG. 7D", "result": 0.0191},
      {"measurement": "viable CFU vs. R347, Mann-Whitney U-test P", "setting": "6077, lung, 5 mg/kg, FIG. 7D", "result": 0.0007},
      {"measurement": "viable CFU vs. R347, Mann-Whitney U-test P", "setting": "6077, lung, 15 mg/kg, FIG. 7D", "result": 0.0003},
      {"measurement": "viable CFU vs. R347, Mann-Whitney U-test P", "setting": "6077, spleen, 5 mg/kg, FIG. 7D", "result": 0.0089},
      {"measurement": "viable CFU vs. R347, Mann-Whitney U-test P", "setting": "6077, spleen, 15 mg/kg, FIG. 7D", "result": 0.0089},
      {"measurement": "viable CFU vs. R347, Mann-Whitney U-test P", "setting": "6077, spleen, 45 mg/kg, FIG. 7D", "result": 0.0015},
      {"measurement": "viable CFU vs. R347, Mann-Whitney U-test P", "setting": "6294 6.25×10^6 CFU, lung, 5 mg/kg, FIG. 7C", "result": 0.0068},
      {"measurement": "viable CFU vs. R347, Mann-Whitney U-test P", "setting": "6294 6.25×10^6 CFU, lung, 15 mg/kg, FIG. 7C", "result": 0.0039},
      {"measurement": "viable CFU vs. R347, Mann-Whitney U-test P", "setting": "6294 6.25×10^6 CFU, lung, 45 mg/kg, FIG. 7C", "result": 0.0003},
      {"measurement": "viable CFU vs. R347, Mann-Whitney U-test P", "setting": "6294 6.25×10^6 CFU, spleen, 5 mg/kg, FIG. 7C", "result": 0.0012},
      {"measurement": "viable CFU vs. R347, Mann-Whitney U-test P", "setting": "6294 6.25×10^6 CFU, spleen, 15 mg/kg, FIG. 7C", "result": 0.0230},
      {"measurement": "viable CFU vs. R347, Mann-Whitney U-test P", "setting": "6294 6.25×10^6 CFU, spleen, 45 mg/kg, FIG. 7C", "result": 0.0057},
      {"measurement": "viable CFU vs. R347, Mann-Whitney U-test P", "setting": "33356 1×10^7 CFU, lung, 45 mg/kg, FIG. 7B", "result": 0.0010},
      {"measurement": "viable CFU vs. R347, Mann-Whitney U-test P", "setting": "33356, lung, 5 mg/kg, FIG. 7B", "result": 0.0045},
      {"measurement": "viable CFU vs. R347, Mann-Whitney U-test P", "setting": "PAO1 1.1×10^7 CFU, lung, 45 mg/kg, FIG. 7A", "result": 0.0015},
      {"measurement": "viable CFU vs. R347, Mann-Whitney U-test P", "setting": "PAO1, kidneys, 15 mg/kg, FIG. 7A", "result": 0.0056},
      {"measurement": "viable CFU vs. R347, Mann-Whitney U-test P", "setting": "PAO1, kidneys, 45 mg/kg, FIG. 7A", "result": 0.0092},
      {"measurement": "viable CFU vs. R347, Mann-Whitney U-test P", "setting": "PAO1, lung, 5 mg/kg, FIG. 7A", "result": 0.0015},
      {"measurement": "viable CFU vs. R347, Mann-Whitney U-test P", "setting": "PAO1, lung, 15 mg/kg, FIG. 7A", "result": 0.0021},
      {"measurement": "viable CFU vs. R347, Mann-Whitney U-test P", "setting": "PAO1, spleen, 15 mg/kg, FIG. 7A", "result": 0.0367},
      {"measurement": "viable CFU vs. R347, Mann-Whitney U-test P", "setting": "PAO1, spleen, 45 mg/kg, FIG. 7A", "result": 0.0120},
      {"measurement": "organ burden, dose dependence", "setting": "cytotoxic strain 6077, FIG. 7D", "result": "the low dose was as effective as the higher dose"},
      {"measurement": "dissemination to the spleen and kidneys", "setting": "mice infected with PAO1, 6294 and 6077, FIG. 7A, C, D", "result": "marked effect in reducing dissemination to the spleen and kidneys"},
      {"measurement": "lung burden", "setting": "strains PAO1, 33356, 6294, 6077, FIG. 7A-D", "result": "effective at reducing P. aeruginosa lung burden against all four strains tested"}
    ]}
  ]
}
